Data: publication PMC7466159, “Anti-Metastasis Fascin Inhibitors Decrease the Growth of Specific Subtypes of Cancers” (Cancers, 2020)
Like-named read-outs stand apart in the source and are kept apart here.

Tests used:
[1] = system: 4T1 mouse triple-negative breast cancer cells; conditions: for inhibition of lung metastasis / IC50, metastasized 4T1 cells in the lungs: BALB/c mice, oral; for IC50, metastasized 4T1 cells in the lungs: Day 7 to Day 27
Experimental: In the second orthotopic spontaneous tumor metastasis mouse model, 4T1 mouse triple-negative breast cancer cells were injected into the mammary gland of BALB/c mice, and then the metastasis to the lung was monitored (Figure 2D,E). The 4T1 mouse tumor closely mimics human breast cancer in its anatomical site, immunogenicity, growth characteristics, and metastatic properties. From the mammary gland, the 4T1 tumor spontaneously metastasizes to a variety of target organs including lung, bone, brain, and liver. Seven days after the implantation of 4T1 tumor cells, we orally administered the mice with different concentrations of NP-G2-044 either once a day or twice a day for six days a week. After 28 days, the mice were sacrificed and examined for metastasis in the lungs.
(§1) Female BALB/c mice (6- to 8-week old) were purchased from Charles River Labs. The 4T1 tumor cells (1 × 10^5) were injected subcutaneously into the abdominal mammary gland area of mice using 0.1 mL of a single-cell suspension in PBS-matrigel (v/v, 1:1) on Day 0 as previously described. […] On Day 28, the mice were sacrificed. […] The numbers of metastatic 4T1 cells in lungs were determined by a clonogenic assay. In brief, the lungs were removed from each mouse, finely minced and digested in 5 mL of an enzyme cocktail containing 1 × PBS and 1 mg/mL collagenase type IV for 2 h at 37 ℃ on a platform rocker. After incubation, samples were filtered through 70-µm nylon cell strainers and washed twice with PBS. The resulting cells were suspended and plated with a series of dilutions in 10-cm tissue culture dishes in DMEM medium containing 60 µM thioguanine for clonogenic growth. As 4T1 tumor cells are resistant to 6-thioguanine, the metastasized tumor cells formed foci after 14 days, at which time they were fixed with 4% paraformaldehyde and stained with crystal violet staining solution for counting. For the experiments in Figure 2F,G, 4T1 tumor cells (1 × 10^5) suspended in PBS-matrigel (v/v, 1:1) were injected subcutaneously into the abdominal mammary gland area of mice on day 0. Starting on Day 3, NP-G2-044 was given to mice once every day by oral gavage at 100 mg kg^−1 per mouse. A vehicle solvent was given to the control group of mice once every day by gavage. Starting on Day 7, paclitaxel was given to mice twice a week by an intraperitoneal injection at 20 mg kg^−1 per mouse for two weeks. Primary tumors were removed on Day 14. All mice were killed for a clonogenic assay on Day 32.

4T1 breast tumor cells = assay: 4T1 metastatic recurrence after chemotherapy and surgical removal of primary tumor; type: in vivo, mice; conditions: 100 mg/kg once daily by gavage starting on Day 3, with paclitaxel and surgery; compared to chemotherapy alone, p < 0.05; Day 32
Experimental: as §1, with “A vehicle solvent was given to the control group of mice once every day by gavage. Starting on Day 7, paclitaxel was given to mice twice a week by an intraperitoneal injection at 20 mg kg^−1 per mouse for two weeks. Primary tumors were removed on Day 14. All mice were killed for a clonogenic assay on Day 32.” left out

[2] = Plasma protein binding assay with mouse plasma; type: in vitro ADME; conditions: in the presence of 100% serum
Ly10 cells [3] = assay: Soft-agar colony formation assay, Ly10; type: cell-based; conditions: 14 days, dosage-dependent
Experimental: A total of 1 × or 2 ×10^4 cells were suspended in 0.5 mL of 0.3% low melting point agar (Merck KGaA, Darmstadt, Germany) in RPMI-1640 or DMEM containing 10% FBS and control solvent or the inhibitors. This suspension was overlaid on pre-solidified with 0.6% agar in the same medium in 24-well plates as previously described. Normal growth medium containing control solvent or the inhibitors was gently layered over the cultures every 4 days for 14 days. The colonies were stained with 0.1% crystal violet for 1 h at room temperature and counted under a microscope.

HT lymphoma cells = assay: HT lymphoma model in NSG mice (tumor growth, overall survival); type: in vivo; conditions: 300 mg/kg gavage once a day 5 days every week from day 28, vs control
Experimental: HT cells (5 × 10^6) suspended in PBS-matrigel (v/v, 1: 1) were subcutaneously injected into NSG mice on day 0. Starting on day 28, NP-G2-044 or the control solvent was given once a day for 5 days every week by gavage at 300 mg kg^−1 per mouse until their death.

[4] = system: NF-κB nuclear translocation in U2932 cells; assay: p65 (NF-κB) nuclear translocation, Western blotting, U2932; type: cell-based; conditions: 30 µM, 16 h
Experimental: We treated U2932 cells with or without NP-G2-044, and measured the potential effects of NP-G2-044 on various pathways critical for lymphoma cell growth.
The lymphoma cells were plated in 10-cm dish. After culture for 24 h, cells were incubated in serum-free medium for 16 h. Cells were then incubated in growth medium with 30 µM NP-G2-044 or dissolvent for 16 h, followed by collecting whole cell lysates or nuclear extracts as previously described.

[5] = system: NF-κB nuclear translocation in HT cells; assay: p65 (NF-κB) nuclear translocation, Western blotting, HT; type: cell-based; conditions: 30 µM, 16 h
[6] = system: BT-20 triple-negative breast cancer cells; assay: Cell growth assay, BT-20; type: cell-based; conditions: BT-20 cells in culture, 10% serum
[7] = system: phosphorylation of ERK, PLCγ1, and PI3K in HCC38 cells; assay: EGFR signaling pathway Western blotting, HCC38; type: cell-based; conditions: 10 ng/mL EGF, 30 µM, 24 h
Experimental: MDA-MB-468 cells and HCC38 cells grew in the presence of EGF with or without NP-G2-044. […] Finally, we used the animal model to investigate whether the primary tumor growth of MDA-MB-468 cells was sensitive to fascin inhibitors. MDA-MB-468 tumor cells were implanted into the mammary gland of NSG mice, and these mice were randomly divided into four groups. One group of mice was used as control (Figure 6I). The second group of mice was treated with the fascin inhibitor NP-G2-044 (Figure 6I). The third group was treated with the EGFR inhibitor gefitnib (Figure 6I), and the fourth group was treated with the combination of NP-G2-044 + gefitinib (Figure 6I). […] We dissected the primary tumor tissues 55 days after the tumor implantation from some mice. […] Furthermore, the overall survival of the mice was analyzed (Figure 6K).
For the cell signal pathway analysis of breast cancer cells, HCC38 and MDA-MB-468 cells were plated in a 10-cm dish. After culture for 24 h, cells were incubated in serum-free medium for 16 h.

[8] = Stability in plasma samples during bioanalysis; type: physicochemical; conditions: after freeze-thaw, and during storage, processing and analysis
Experimental: The concentrations of NP-G2-044 in plasma were determined using high performance liquid chromatography with tandem mass spectrometry (LC-MS/MS). All blood samples were transferred into a commercial tube containing potassium (K2) EDTA (ethylene diaminetetraacetic acid) and were processed for plasma. Samples were centrifuged (3000× g for 10 min at 2 to 8 °C) within one hour of collection. The assays used a Sciex API 4000 detector and nifedipine as an internal standard. The calibration ranges for NP-G2-044 were from 5.00 to 5000 ng/mL.

Ly1 lymphoma cells = assay: Cell growth sensitivity, Ly1; type: cell-based
[9] = system: 4T1 triple-negative breast cancer cells; set-up: method as in PMID 26081695, PMID 27071719; conditions: 4T1 cells; cited from earlier work
[10] = system: MDA-MB-231 triple-negative breast cancer cells; set-up: method as in PMID 26081695, PMID 27071719; conditions: MDA-MB-231 cells; cited from earlier work
Ly10 cells [11] = assay: Cell growth assay, Ly10; conditions: Ly10 cells in culture, 4 days
Experimental: We then extended our search to other types of lymphoma cells. […] Both U2932 and Ly10 cells are ABC-subtype DLBCLs, and HT cells are diffuse mixed lymphoma.
For NP-G2-044 dose-dependent studies, 1 × 10^5 Ly10, U2932, or HT cells were seeded in a 12- or 24-well plate on day 0. A total of 1, 3, 10, 30, or 100 μM NP-G2-044 or control solvent was added to the plates. Cells were collected and counted on day 4. For time-dependent studies, 1 × 10^5 Ly10, U2932, or HT cells were seeded in a 12- or 24-well plate on day 0. A total of 30 μM NP-G2-044, 5 μM LY2409881, 30 μM NP-G2-044 plus 5 μM LY2409881, or control solvent was added to the plates. Cells were collected and counted on Days 2 and 4. […] The cell growth index was expressed as the fold changes of cell numbers over the starting cell number. For these assays, the old medium was changed with a fresh medium containing the control solvent or the inhibitors every two days.

In the case of Cc1occc1C(=O)Nc1nn(Cc2ccc(C(F)(F)F)cc2)c2ccccc12 [NP-G2-044], the “inhibition of lung metastasis” value ([1]; 30 mg/kg twice a day) is reported as “almost complete inhibition”, the “inhibition of lung metastasis” value ([1]; 300 mg/kg once a day) is reported as “almost complete inhibition” and the “IC50, metastasized 4T1 cells in the lungs” value ([1]; once a day) is reported as 40 mg/kg. For the same compound, the “IC50, metastasized 4T1 cells in the lungs” value ([1]; twice a day) was 5 mg/kg, the “tolerability of dosage regimen” value ([1]; mouse, in vivo) was “well tolerated with no signs of overt toxicity” and the “metastatic recurrence of breast tumors in the lung” value (4T1 breast tumor cells) was “slowed the metastatic recurrence”. The fraction unbound [2] was ~0.003, the “number of growing colonies” value (Ly10 cells [3]) was “decreased the number of growing colonies” and the primary tumor growth (HT lymphoma cells) was “decreased”. For the same compound, the overall survival (HT lymphoma cells; logrank p = 0.002) was “increased”, the “nuclear translocation of the p65 subunits” value [4] was “decreased” and the “nuclear translocation of the p65 subunits” value [5] was “also observed”. For the same compound, the growth sensitivity [6] was “sensitive”, the “phosphorylation of ERK, PLCγ1, and PI3K” value [7] was “affected” and the stability [8] was “stable”. The growth sensitivity (Ly1 lymphoma cells) was “insensitive”, the induction of apoptosis [9] was “did not induce the apoptosis” and the induction of apoptosis [10] was “did not induce the apoptosis”. The “effect on cell growth” value (Ly10 cells [11]) was “inhibitory effect”.
